Measured values: ChEMBL document CHEMBL5500344, “Design, synthesis and biological evaluation of matrine contains benzimidazole derivatives as dual TOPOI and PARP inhibitors for cancer therapy” (Eur J Med Chem, 2024)
pIC50: −log10 of the molar value. The source made the active and inactive calls. The calls are words filed in the database; no cut-off is given here.

Legend:
HeLa = experiment: Antiproliferative activity against human HeLa cells assessed as inhibition of cell growth incubated for 48 hrs by MTT assay; format: functional, cell-based
A549 = experiment: Antiproliferative activity against human A549 cells assessed as inhibition of cell growth incubated for 48 hrs by MTT assay; format: functional, cell-based; details: A549, 48 h
[1] = target: T1, DNA topoisomerase 1 (Homo sapiens) (UniProt P11387); experiment: Inhibition of human topoisomerase 1 assessed as relaxation of supercoiled pBR322 plasmid DNA at 100 uM incubated for 10 to 15 mins by EtBr staining based agarose gel electrophoresis method; details: time 10-15 min
T1 sequence (whole entry): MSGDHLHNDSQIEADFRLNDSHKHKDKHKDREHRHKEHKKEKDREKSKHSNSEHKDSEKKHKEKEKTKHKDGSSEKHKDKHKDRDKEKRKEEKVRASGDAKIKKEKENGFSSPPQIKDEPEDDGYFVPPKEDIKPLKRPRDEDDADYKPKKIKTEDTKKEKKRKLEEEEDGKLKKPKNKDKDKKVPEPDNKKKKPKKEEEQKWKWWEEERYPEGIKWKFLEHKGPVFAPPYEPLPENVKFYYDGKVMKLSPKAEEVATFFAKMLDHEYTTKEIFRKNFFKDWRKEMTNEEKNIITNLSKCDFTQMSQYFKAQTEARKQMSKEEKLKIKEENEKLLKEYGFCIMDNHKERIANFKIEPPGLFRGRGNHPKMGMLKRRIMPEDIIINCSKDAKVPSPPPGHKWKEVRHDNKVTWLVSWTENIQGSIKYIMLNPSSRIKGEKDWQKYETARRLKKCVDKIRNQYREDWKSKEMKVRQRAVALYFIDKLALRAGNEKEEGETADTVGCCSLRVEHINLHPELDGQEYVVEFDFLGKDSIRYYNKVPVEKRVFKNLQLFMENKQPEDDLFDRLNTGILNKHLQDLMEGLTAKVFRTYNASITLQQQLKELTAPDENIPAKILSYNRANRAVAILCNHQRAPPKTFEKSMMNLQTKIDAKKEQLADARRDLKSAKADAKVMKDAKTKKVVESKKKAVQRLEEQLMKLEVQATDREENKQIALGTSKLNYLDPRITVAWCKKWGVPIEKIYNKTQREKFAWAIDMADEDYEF

[2] = target: Poly [ADP-ribose] polymerase 1 (Homo sapiens, UniProt P09874); experiment: Inhibition of PARP-1 (unknown origin) incubated for 70 mins by HT universal chemiluminescent assay
L02 = experiment: Antiproliferative activity against human L02 cells assessed as inhibition of cell growth incubated for 48 hrs by MTT assay; format: functional, cell-based; details: L02, 48 h
HepG2 = experiment: Antiproliferative activity against human HepG2 cells assessed as inhibition of cell growth incubated for 48 hrs by MTT assay; format: functional, cell-based; details: HepG2, 48 h
HGC-27 [3] = experiment: Antiproliferative activity against human HGC-27 cells assessed as inhibition of cell growth incubated for 48 hrs by MTT assay; format: functional, cell-based; details: HGC-27, 48 h
[4] = Acute toxicity in BALB/c mouse xenografted with human HGC-27 cells assessed as change in body weight at 40 mg/kg,ip administrated every other day for 17 days; format: organism-based; details: in vivo, 408 h, time 17 day
[5] = Acute toxicity in BALB/c mouse xenografted with human HGC-27 cells assessed as venous congestion in liver at 40 mg/kg,ip administrated every other day for 17 days by hematoxylin and eosin staining method; format: organism-based; details: in vivo, 408 h, time 17 day
HGC-27 [6] = experiment: Antitumor activity against human HGC-27 cells xenografted in BALB/c mouse assessed as tumor growth inhibition at 40 mg/kg,ip administrated every other day for 17 days relative to control; format: functional; details: HGC-27, 408 h, time 17 day, read-out: TGI
[7] = Acute toxicity in BALB/c mouse xenografted with human HGC-27 cells assessed as venous congestion in spleen at 40 mg/kg,ip administrated every other day for 17 days by hematoxylin and eosin staining method; format: organism-based; details: in vivo, 408 h, time 17 day
[8] = Acute toxicity in BALB/c mouse xenografted with human HGC-27 cells assessed as increase in mucin secretion of lung at 40 mg/kg,ip administrated every other day for 17 days by hematoxylin and eosin staining method; format: organism-based; details: in vivo, 408 h, time 17 day
[9] = Acute toxicity in BALB/c mouse xenografted with human HGC-27 cells assessed as increase in connective tissue proliferation of kidney at 40 mg/kg,ip administrated every other day for 17 days by hematoxylin and eosin staining method; format: organism-based; details: in vivo, 408 h, time 17 day

Poly [ADP-ribose] polymerase 1, sequence (P09874 whole entry): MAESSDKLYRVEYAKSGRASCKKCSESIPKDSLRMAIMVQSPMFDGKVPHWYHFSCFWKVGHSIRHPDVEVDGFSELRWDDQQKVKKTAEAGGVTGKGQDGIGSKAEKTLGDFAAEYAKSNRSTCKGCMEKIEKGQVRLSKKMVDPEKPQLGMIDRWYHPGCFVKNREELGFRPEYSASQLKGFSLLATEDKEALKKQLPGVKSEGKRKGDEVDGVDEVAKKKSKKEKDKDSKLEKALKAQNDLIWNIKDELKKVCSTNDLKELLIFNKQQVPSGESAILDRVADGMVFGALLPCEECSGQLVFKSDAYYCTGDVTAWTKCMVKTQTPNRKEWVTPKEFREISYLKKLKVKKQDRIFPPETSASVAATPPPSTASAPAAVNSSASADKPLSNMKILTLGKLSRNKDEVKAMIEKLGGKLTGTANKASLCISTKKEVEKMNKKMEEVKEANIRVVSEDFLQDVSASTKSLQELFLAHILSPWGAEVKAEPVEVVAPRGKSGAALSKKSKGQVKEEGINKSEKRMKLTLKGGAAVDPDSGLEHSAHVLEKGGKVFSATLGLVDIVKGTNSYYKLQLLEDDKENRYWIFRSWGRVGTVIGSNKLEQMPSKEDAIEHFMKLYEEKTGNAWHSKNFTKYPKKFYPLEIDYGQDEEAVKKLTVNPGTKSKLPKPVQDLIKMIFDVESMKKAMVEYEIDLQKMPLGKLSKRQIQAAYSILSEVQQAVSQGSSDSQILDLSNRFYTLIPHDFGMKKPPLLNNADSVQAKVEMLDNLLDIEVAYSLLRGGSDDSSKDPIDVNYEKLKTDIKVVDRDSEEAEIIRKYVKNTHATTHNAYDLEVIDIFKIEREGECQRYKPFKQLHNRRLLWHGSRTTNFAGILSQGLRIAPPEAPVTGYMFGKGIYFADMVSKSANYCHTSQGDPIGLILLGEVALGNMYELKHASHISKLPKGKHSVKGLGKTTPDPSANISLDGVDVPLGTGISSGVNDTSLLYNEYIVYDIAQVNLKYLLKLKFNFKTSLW

inhibition [1]	pIC50 [2]	Compound	pIC50 (HeLa)	pIC50 (A549)	pIC50 (L02)	pIC50 (HepG2)	pIC50 (HGC-27 [3]; read-out: IC50)	Activity [4]	Activity [5]	inhibition in vivo at 40 mg/kg (HGC-27 [6]) [%]	Activity [7]	Activity [8]	pIC50 (HGC-27 [3])	Activity [9]
Active	5.85	Cc1ccc(S(=O)(=O)N2C[C@@H]3CCCN4CCC[C@@H]([C@H]34)[C@H]2CCCc2nc3cc(Br)ccc3n2S(=O)(=O)c2ccc(C)cc2)cc1	5.13	4.97	< 4.19	5.31	5.20							
		O=C1CCC[C@@H]2[C@H]3CCCN4CCC[C@@H](CN12)[C@@H]34 [MATRINE]	2.17	2.23		2.36	2.38	Toxic	Toxic	9.7	Toxic			
Active	< 4.80	O=C(CCC[C@@H]1[C@H]2CCCN3CCC[C@@H](CN1C(=O)OCC1c4ccccc4-c4ccccc41)[C@@H]23)NCCCc1nc2ccc(F)cc2[nH]1	4.80	4.93	< 4.19	5.17	5.09							
		CCc1c2c(nc3ccc(OC(=O)N4CCC(N5CCCCC5)CC4)cc13)-c1cc3c(c(=O)n1C2)COC(=O)[C@]3(O)CC [IRINOTECAN]	4.88	5.21		4.97		Toxic		87	Toxic	Toxic	5.15	Toxic
